Experimental data taken from PubChem BioAssay AID280 (DTP/NCI, 2004).
“And” between values parts separate entries of the source, which are not always exact repeats. Equal entries are not always repeated. Toxic doses and inconclusive results are not listed.

Tested on: nude mice, LOX melanoma ip, survival T/C
Experiment: NCI In Vivo Anticancer Drug Screen. Data for tumor model Human Amelanotic Melanoma (LOX) (intraperitoneal) in NU/NU BALB/C (nude) mice
Details: endpoint: median survival time, higher = longer survival
Description: The antitumor activity of compounds was measured in mice bearing transplantable tumors. Survival or tumor size were measured and the results are expressed as the measurement made in the treated group (T) divided by the measurement made in the vehicle treated control group (C). The tumor model used in this assay is Human Amelanotic Melanoma (LOX) (intraperitoneal) in NU/NU BALB/C (nude) mice

[1] = dose: 300.0 mg/kg/injection, schedule: Q04DX003 (ip), vehicle: Klucel (hydroxypropylcellulose) (HPC)
[2] = dose: 75.0 mg/kg/injection, schedule: Q04DX003 (ip), vehicle: Klucel (hydroxypropylcellulose) (HPC)
[3] = dose: 150.0 mg/kg/injection, schedule: Q04DX003 (ip), vehicle: Klucel (hydroxypropylcellulose) (HPC)
[4] = dose: 75.0 mg/kg/injection, schedule: Q04DX003 (ip), vehicle: saline with Tween-80
[5] = dose: 150.0 mg/kg/injection, schedule: Q04DX003 (ip), vehicle: saline with Tween-80
[6] = dose: 300.0 mg/kg/injection, schedule: Q04DX003 (ip), vehicle: saline with Tween-80

For `CCOC(=O)Nc1cc2c(c(N)n1)N=C(c1ccc3ccccc3c1)CN2`, the T/C (dose: 14.4 mg/kg/injection, schedule: Q04DX003 (ip), vehicle: saline with Tween-80) was 100 % of control, the T/C (dose: 24.0 mg/kg/injection, schedule: Q04DX003 (ip), vehicle: saline with Tween-80) was 123 % of control and the T/C (dose: 40.0 mg/kg/injection, schedule: Q04DX003 (ip), vehicle: saline with Tween-80) was 103 % of control and 112 % of control. The T/C (dose: 66.66 mg/kg/injection, schedule: Q04DX003 (ip), vehicle: saline with Tween-80) was 109 % of control, the T/C (dose: 67.0 mg/kg/injection, schedule: Q04DX003 (ip), vehicle: saline with Tween-80) was 111 % of control and the T/C (dose: 111.0 mg/kg/injection, schedule: Q04DX003 (ip), vehicle: saline with Tween-80) was 112 % of control. The T/C (dose: 185.0 mg/kg/injection, schedule: Q04DX003 (ip), vehicle: saline with Tween-80) was 122 % of control.

`[N-]=[N+]=[N-]` was tested, and the T/C (dose: 1.5 mg/kg/injection, schedule: Q04DX003 (ip), vehicle: water) was 99 % of control, the T/C (dose: 3.0 mg/kg/injection, schedule: Q04DX003 (ip), vehicle: water) was 104 % of control and the T/C (dose: 12.0 mg/kg/injection, schedule: Q04DX003 (ip), vehicle: water) was 89 % of control. For the same molecule, the T/C (dose: 24.0 mg/kg/injection, schedule: Q04DX003 (ip), vehicle: water) was 104 % of control.

`Cc1cc(=NO)cc(C)n1O` was tested, and the T/C (dose: 75.0 mg/kg/injection, schedule: Q04DX003 (ip), vehicle: distilled water + alcohol) was 101 % of control, the T/C (dose: 150.0 mg/kg/injection, schedule: Q04DX003 (ip), vehicle: distilled water + alcohol) was 103 % of control and the T/C (dose: 300.0 mg/kg/injection, schedule: Q04DX003 (ip), vehicle: distilled water + alcohol) was 101 % of control. For the same molecule, the T/C (dose: 600.0 mg/kg/injection, schedule: Q04DX003 (ip), vehicle: distilled water + alcohol) was 96 % of control.

`O=NNc1cnccn1` was tested, and the T/C (dose: 11.3 mg/kg/injection, schedule: Q01DX009 (ip), vehicle: other) was 110 % of control, the T/C (dose: 11.3 mg/kg/injection, schedule: Q03HX008 (ip), vehicle: other) was 117 % of control and the T/C (dose: 12.5 mg/kg/injection, schedule: Q04DX003 (ip), vehicle: water) was 110 % of control. The T/C (dose: 16.9 mg/kg/injection, schedule: Q01DX005 (iv), vehicle: other) was 97 % of control, the T/C (dose: 16.9 mg/kg/injection, schedule: Q01DX009 (ip), vehicle: other) was 153 % of control and the T/C (dose: 25.3 mg/kg/injection, schedule: Q01DX009 (ip), vehicle: other) was 175 % of control. The T/C (dose: 25.3 mg/kg/injection, schedule: Q03HX008 (ip), vehicle: other) was 159 % of control, the T/C (dose: 29.7 mg/kg/injection, schedule: Q04DX003 (ip), vehicle: water) was 201 % of control and the T/C (dose: 38.0 mg/kg/injection, schedule: Q01DX005 (iv), vehicle: other) was 153 % of control. The T/C (dose: 38.0 mg/kg/injection, schedule: Q01DX009 (ip), vehicle: other) was 189 % of control, the T/C (dose: 38.0 mg/kg/injection, schedule: Q04DX003 (iv), vehicle: other) was 123 % of control and the T/C (dose: 44.5 mg/kg/injection, schedule: Q04DX003 (ip), vehicle: water) was 180 % of control and 189 % of control. For the same molecule, the T/C (dose: 50.0 mg/kg/injection, schedule: Q04DX003 (ip), vehicle: water) was 156 % of control, the T/C (dose: 57.0 mg/kg/injection, schedule: Q01DX001 (ip), vehicle: other) was 116 % of control and the T/C (dose: 57.0 mg/kg/injection, schedule: Q01DX001 (iv), vehicle: other) was 115 % of control. The T/C (dose: 57.0 mg/kg/injection, schedule: Q01DX005 (iv), vehicle: other) was 191 % of control, the T/C (dose: 57.0 mg/kg/injection, schedule: Q01DX009 (ip), vehicle: other) was 220 % of control and the T/C (dose: 57.0 mg/kg/injection, schedule: Q04DX003 (ip), vehicle: other) was 170 % of control. The T/C (dose: 57.0 mg/kg/injection, schedule: Q04DX003 (iv), vehicle: other) was 154 % of control, the T/C (dose: 66.7 mg/kg/injection, schedule: Q04DX003 (ip), vehicle: water) was 200 % of control and 221 % of control and the T/C (dose: 85.4 mg/kg/injection, schedule: Q01DX001 (iv), vehicle: other) was 120 % of control. For the same molecule, the T/C (dose: 85.4 mg/kg/injection, schedule: Q04DX003 (ip), vehicle: other) was 185 % of control, the T/C (dose: 85.4 mg/kg/injection, schedule: Q04DX003 (iv), vehicle: other) was 159 % of control and the T/C (dose: 85.4 mg/kg/injection, schedule: Q08DX002 (ip), vehicle: other) was 150 % of control. For the same molecule, the T/C (dose: 100.0 mg/kg/injection, schedule: Q04DX003 (ip), vehicle: water) was 232 % of control and 250 % of control and 301 % of control, the T/C (dose: 128.0 mg/kg/injection, schedule: Q01DX001 (ip), vehicle: other) was 170 % of control and the T/C (dose: 128.0 mg/kg/injection, schedule: Q04DX003 (ip), vehicle: other) was 170 % of control. For the same molecule, the T/C (dose: 128.0 mg/kg/injection, schedule: Q04DX003 (iv), vehicle: other) was 91 % of control, the T/C (dose: 128.0 mg/kg/injection, schedule: Q08DX002 (ip), vehicle: other) was 180 % of control and the T/C (dose: 150.0 mg/kg/injection, schedule: Q04DX003 (ip), vehicle: water) was 248 % of control and 296 % of control. For the same molecule, the T/C (dose: 192.0 mg/kg/injection, schedule: Q01DX001 (ip), vehicle: other) was 180 % of control, the T/C (dose: 192.0 mg/kg/injection, schedule: Q08DX002 (ip), vehicle: other) was 300 % of control and the T/C (dose: 200.0 mg/kg/injection, schedule: Q04DX003 (ip), vehicle: water) was 121 % of control.

With `N=C(N)c1ccc(N=Nc2c(O)ccc3cc(O)ccc23)cc1` the T/C (dose: 18.75 mg/kg/injection, schedule: Q04DX003 (ip), vehicle: Klucel (hydroxypropylcellulose) (HPC)) was 92 % of control, the T/C (dose: 37.5 mg/kg/injection, schedule: Q04DX003 (ip), vehicle: Klucel (hydroxypropylcellulose) (HPC)) was 102 % of control and the T/C [1] was 95 % of control.

`CC[C@@H](C)[C@H]([C@H](CC(=O)N1CCC[C@@H]1[C@@H](OC)[C@H](C)C(=O)N[C@H](Cc1ccccc1)c1nccs1)OC)N(C)C(=O)[C@H](NC(=O)[C@@H](C(C)C)N(C)C)C(C)C` was tested, and the T/C (dose: 3.0 micrograms/kg/injection, schedule: Q04DX003 (ip), vehicle: saline + alcohol) was 109 % of control, the T/C (dose: 3.25 micrograms/kg/injection, schedule: Q04DX003 (ip), vehicle: saline + alcohol) was 170 % of control and the T/C (dose: 6.0 micrograms/kg/injection, schedule: Q04DX003 (ip), vehicle: saline + alcohol) was 113 % of control. For the same molecule, the T/C (dose: 6.5 micrograms/kg/injection, schedule: Q04DX003 (ip), vehicle: saline + alcohol) was 206 % of control, the T/C (dose: 9.0 micrograms/kg/injection, schedule: Q04DX003 (ip), vehicle: saline + alcohol) was 115 % of control and the T/C (dose: 13.0 micrograms/kg/injection, schedule: Q04DX003 (ip), vehicle: saline + alcohol) was 301 % of control. For the same molecule, the T/C (dose: 15.0 micrograms/kg/injection, schedule: Q04DX003 (ip), vehicle: saline + alcohol) was 192 % of control, the T/C (dose: 26.0 micrograms/kg/injection, schedule: Q04DX003 (ip), vehicle: saline + alcohol) was 181 % of control and 301 % of control and the T/C (dose: 43.0 micrograms/kg/injection, schedule: Q04DX003 (ip), vehicle: saline + alcohol) was 340 % of control.

`O=C1CC2(C(=O)N1CN1CCOCC1)c1ccccc1-c1ccccc12` was tested, and the T/C [2] was 102 % of control, the T/C [3] was 98 % of control and the T/C [1] was 103 % of control. The T/C (dose: 600.0 mg/kg/injection, schedule: Q04DX003 (ip), vehicle: Klucel (hydroxypropylcellulose) (HPC)) was 120 % of control.

With `S=C(NCNC(=S)c1ccncc1)c1ccncc1` the T/C [4] was 104 % of control, the T/C [5] was 103 % of control and the T/C [6] was 106 % of control. For the same molecule, the T/C (dose: 600.0 mg/kg/injection, schedule: Q04DX003 (ip), vehicle: saline with Tween-80) was 87 % of control.

In the case of `CCOC(=O)Nc1cc(NC(C)/C(=N/O)c2ccccc2)c([N+](=O)[O-])c(N)n1` (centres undefined), the T/C (dose: 50.0 mg/kg/injection, schedule: Q04DX003 (ip), vehicle: Klucel (hydroxypropylcellulose) (HPC)) is reported as 97 % of control, the T/C (dose: 51.84 mg/kg/injection, schedule: Q04DX003 (ip), vehicle: Klucel (hydroxypropylcellulose) (HPC)) is reported as 109 % of control and the T/C (dose: 86.4 mg/kg/injection, schedule: Q04DX003 (ip), vehicle: Klucel (hydroxypropylcellulose) (HPC)) is reported as 104 % of control. The T/C (dose: 144.0 mg/kg/injection, schedule: Q04DX003 (ip), vehicle: Klucel (hydroxypropylcellulose) (HPC)) was 89 % of control and the T/C (dose: 240.0 mg/kg/injection, schedule: Q04DX003 (ip), vehicle: Klucel (hydroxypropylcellulose) (HPC)) was 101 % of control.

In the case of `Cc1cc(N/N=C/c2ccccn2)nc2ccccc12`, the T/C [2] is reported as 107 % of control and the T/C [3] is reported as 107 % of control.

For `CS(=O)(=O)Nc1ccc(C(=O)CCN2CCCCCC2)cc1`, the T/C (dose: 37.5 mg/kg/injection, schedule: Q04DX003 (ip), vehicle: saline with Tween-80) was 98 % of control, the T/C [4] was 123 % of control and the T/C [5] was 93 % of control. For the same molecule, the T/C [6] was 110 % of control.
